From US5459152A, “Platelet activating factor antagonists” (Abbott Laboratories, priority 1993, dated 1995)
pKi: −log10 of the molar value.

molecular target: T1, PAF receptor (Oryctolagus cuniculus, UniProt G1TEI7); test: PAF receptor binding assay ([3H]C18-PAF, rabbit platelet membranes); settings: inhibition of specific binding of 0.6 nM [3H]C18-PAF to rabbit platelet membranes, 60 min, room temperature; Ki calculated from IC50 by Cheng and Prusoff; read-out: PAF Receptor Binding Activity K1
T1 construct: platelet membranes where prepared by centrifugation and washing; tissue Pel-Freez (Rogers, AR) (whole rabbit blood); host or cells: rabbit platelet membranes
Method: The ability of representative compounds of the present invention to inhibit PAF activity was determined in an in vitro test using the following method.
Citrated whole rabbit blood was obtained from Pel-Freez (Rogers, AR). Rabbit platelets where prepared by centrifugation and washing. The platelets where lysed by freeze-thawing and sonication; platelet membranes where prepared by centrifugation and washing. Final membrane preparations where stored frozen in 10 mM Tris/5 mM MgCl2 /2 mM EDTA (TME buffer, pH 7.0) with 0.25 M sucrose added for membrane stabilization.
The final volume of the assay was 100 μl. The assay was conducted in Millititre-GV™ (Millipore Corp.) filtration plates; incubation time was for 60 minutes at room temperature (22°-23° C.). "Specific binding" was operationally defined as the arithmetic difference between "total binding" of 0.6 nM [^3 H]C18 -PAF (in the absence of added PAF) and "nonspecific binding" (in the presence of 1 μM PAF). After the prescribed incubation, platelet membranes where filtered under vacuum and washed with 1 millilitre of "binding buffer". The filters was dried and removed. The bound radioactivity was quantitated with a Berthold TLC-Linear Analyzer model LB2842.
Experiments where repeated at least once.

T1 sequence (G1TEI7 1-342): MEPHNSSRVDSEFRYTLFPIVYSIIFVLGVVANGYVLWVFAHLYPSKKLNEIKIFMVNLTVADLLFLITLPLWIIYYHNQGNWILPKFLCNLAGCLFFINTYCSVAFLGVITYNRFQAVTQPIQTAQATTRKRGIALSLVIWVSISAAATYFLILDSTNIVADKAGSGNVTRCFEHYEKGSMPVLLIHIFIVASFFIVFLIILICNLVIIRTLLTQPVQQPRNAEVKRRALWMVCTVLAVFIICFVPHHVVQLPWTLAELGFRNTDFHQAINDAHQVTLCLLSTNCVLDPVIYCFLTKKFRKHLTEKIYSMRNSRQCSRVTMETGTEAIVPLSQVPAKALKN

Compared with “3(1-Carbamoylamino-pyridin-3-yl)-7-[1-N,N-dimethylcarbamoyl-6-(4-fluorophenyl)indol-3-ylcarbonyl]-1H,3H-pyrrolo[1,2-c]thiazole [Example 77]”, “3-(Pyridin-3-yl)-7-[1-N-sulfoethylcarbamoyl-6-(4-fluorophenyl)indol- 3-ylcarbonyl]-1H,3H-pyrrolo[1,2-c]thiazole [Example 100]” is lower in pKi: 7.00 for the first, under 6.52 for the second.

With “3-[Pyridin-3-yl)-7-(6-pyrimid-2-ylindol-3-ylcarbonyl)-1H,3H-pyrrolo[1,2-c]thiazole [Example 74]” the pKi was 7.08.

same assay, conditions: read-out: PAF Receptor Binding Activity K1

In order of falling pKi:
1. CNC(=O)n1cc(C(=O)c2ccn3c2CSC3c2cccnc2)c2ccc(OCc3ccccc3)cc21 (stereo not shown) [Example 22, 3-(Pyridin-3-yl)-7-(1-N-methylcarbamoyl-6-phenylmethoxyindol-3-ylcarbonyl)-1H,3H-pyrrolo[1,2-c]thiazole]  8.05
2. CN(C)C(=O)n1cc(C(=O)c2ccn3c2CSC3c2ccc[n+]([O-])c2)c2ccc(-c3ccccc3)cc21 (stereo not shown) [Example 34, 3-(1-Oxide-pyridin-3-yl)-7-(1-N,N-dimethylcarbamoyl-6-phenylindol-3-ylcarbonyl)-1H,3H-pyrrolo[1,2-c]thiazole]  7.85
3. Cn1cc(C(=O)c2ccn3c2CSC3c2cccnc2)c2ccc(OCc3ccccc3)cc21 (stereo not shown) [Example 21, 3-(Pyridin-3-yl)-7-(1-methyl-6-phenylmethoxyindol-3-ylcarbonyl)-1H,3H-pyrrolo[1,2-c]thiazole]  7.82
4. CN(C)C(=O)n1cc(C(=O)c2ccn3c2CSC3c2cccnc2)c2ccc(OCc3ccccc3)cc21 (stereo not shown) [Example 7, 3-(Pyridin-3-yl)-7-(1-N,N-dimethylcarbamoyl-6-phenylmethoxyindol-3-yl)carbonyl-1H,3H-pyrrolo[1,2-c]thiazole]  7.77
5. CN(C)C(=O)n1cc(C(=O)c2ccn3c2CSC3c2cccnc2)c2ccc(-c3ccccc3)cc21 (stereo not shown) [Example 12, 3-(Pyridin-3-yl)-7-(1-N,N-dimethylcarbamoyl-6-phenylindol-3-yl)carbonyl-1H,3H-pyrrolo[1,2-c]thiazole]  7.64
6. COC(=O)n1cc(C(=O)c2ccn3c2CSC3c2cccnc2)c2ccc(OCc3ccccc3)cc21 (stereo not shown) [Example 18]  7.46
7. CNC(=O)n1cc(C(=O)c2ccn3c2CSC3c2ccc[n+]([O-])c2)c2ccc(-c3ccccc3)cc21 (stereo not shown) [Example 35, 3-(1-Oxide-pyridin-3-yl)-7-(1-N-methylcarbamoyl-6-phenylindol-3-ylcarbonyl)-1H,3H-pyrrolo[1,2-c]thiazole]  7.36
8. CN(C)C(=O)n1cc(C(=O)c2ccn3c2C(C)(C)SC3c2cccnc2)c2ccc(-c3ccccc3)cc21 (stereo not shown) [Example 24, 1,1-Dimethyl-3-(pyridin-3-yl)-7-(1-N,N-dimethylcarbamoyl-6-phenylindol-3-ylcarbonyl)-1H,3H-pyrrolo[1,2-c]thiazole]  7.29
9. COc1ccc(-c2ccc3c(C(=O)c4ccn5c4C(C)(C)SC5c4cccnc4)cn(C(=O)N(C)C)c3c2)cc1 (stereo not shown) [Example 26, 1,1-Dimethyl-3-Dimethyl-3-(pyridin-3-yl)-7-[1-N,N-dimethylcarbamoyl-6-(4-methoxyphenyl)indol-3-ylcarbonyl]-1H,3H-pyrrolo[1,2-c]thiazole]  7.26
10. O=C(c1ccn2c1CSC2c1cccnc1)c1c[nH]c2cc(OCc3ccccc3)ccc12 (stereo not shown) [Example 4, 3-(Pyridin-3-yl)-7-(6-phenylmethoxyindol-3-yl)carbonyl-1H,3H-pyrrolo[1,2-c]thiazole]  7.19
11. O=C(c1ccn2c1CSC2c1cccnc1)c1c[nH]c2cc(-c3ccc(F)cc3)ccc12 (stereo not shown) [Example 28, 3-(Pyridin-3-yl)-7-[6-(4-fluorophenyl)indol-3-ylcarbonyl]-1H,3H-pyrrolo[1,2-c]thiazole]  7.12
12. CC(C)N(C(=O)n1cc(C(=O)c2ccn3c2CSC3c2cccnc2)c2ccc(OCc3ccccc3)cc21)C(C)C (stereo not shown) [Example 16, 3-(Pyridin-3-yl)-7-(1-N,N-diisopropylcarbamoyl-6-phenylmethoxyindol-3-ylcarbonyl)-1H,3H-pyrrolo[1,2-c]thiazole]  7.07
13. O=C(c1ccn2c1CSC2c1cccnc1)c1c[nH]c2c(OCc3ccccc3)cccc12 (stereo not shown) [Example 5, 3(Pyridin-3-yl)-7-(7-phenylmethoxyindol-3-yl)carbonyl-1H,3H-pyrrolo[1,2-c]thiazole]  7.05
14. O=C(c1ccn2c1CSC2c1cccnc1)c1c[nH]c2cc(-c3ccccc3)ccc12 (stereo not shown) [Example 10, 3-(Pyridin-3-yl)-7-(6-phenylindol-3-yl)carbonyl-1H,3H-pyrrolo[1,2-c]thiazole]  7.02
15. CN(C)C(=O)n1cc(C(=O)c2ccn3c2C[S+]([O-])C3c2cccnc2)c2ccc(-c3ccccc3)cc21 (stereo not shown) [Example 23, 2-Oxide-3-(pyridin-3-yl)-7-(1-N,N-dimethylcarbamoyl-6-phenyllindol-3-ylcarbonyl)-1H,3H-pyrrolo[1,2-c]thiazole]  7.02
16. CN(C)C(=O)n1cc(C(=O)c2ccn3c2C(C)(C)SC3c2cccnc2)c2ccccc21 (stereo not shown) [Example 19, 1,1-Dimethyl-3-(pyridin-3-yl)-7-(1-N,N-dimethylcarbamoyl-indol-3-ylcarbonyl)-1H,3H-pyrrolo[1,2-c]thiazole]  7.00
17. CC(C)(C)OC(=O)n1cc(C(=O)c2ccn3c2CSC3c2cccnc2)c2ccccc21 (stereo not shown) [Example 9, 3-(Pyridin-3-yl)-7-(1-tert-butyloxycarbonylindol-3-yl)carbonyl-1H,3H-pyrrolo[1,2-c]thiazole]  6.96
18. CN(C)C(=O)n1cc(C(=O)c2ccn3c2CSC3c2cccnc2)c2cc(OCc3ccccc3)ccc21 (stereo not shown) [Example 6, 3-(Pyridin-3-yl)-7-(N,N-dimethylcarbamoyl-5-phenylmethoxyindol-3-yl)carbonyl-1H,3H-pyrrolo[1,2-c]thiazole]  6.92
19. CNC(=O)n1cc(C(=O)c2ccn3c2CSC3c2cccnc2)c2ccc(-c3ccccc3)cc21 (stereo not shown) [Example 30, 3-(Pyridin-3-yl)-7-(1-N-methylcarbamoyl-6-phenylindol-3-ylcarbonyl)-1H,3H-pyrrolo[1,2-c]thiazole]  6.87
20. CNC(=O)n1cc(C(=O)c2ccn3c2C(C)(C)SC3c2cccnc2)c2ccc(-c3ccc(OC)cc3)cc21 (stereo not shown) [Example 32, 1,1-Dimethyl-3-(pyridin-3-yl)-7-[1-N-methylcarbamoyl-6-(4-methoxyphenyl)indol-3-ylcarbonyl]-1H,3H-pyrrolo[1,2-c]thiazole]  6.82
21. O=C(c1ccn2c1CSC2c1cccnc1)c1c[nH]c2ccc(OCc3ccccc3)cc12 (stereo not shown) [Example 3, 3-(Pyridin-3-yl)-7-(5-phenylmethoxyindol-3-yl)carbonyl-1H,3H-pyrrolo[1,2-c]thiazole]  6.74
22. CN(C(=O)n1cc(C(=O)c2ccn3c2CSC3c2cccnc2)c2ccc(OCc3ccccc3)cc21)c1ccccc1 (stereo not shown) [Example 20, 3-(Pyridin-3-yl)-7-(1-N-methyl-N-phenylcarbamoyl-6-phenylmethoxyindol-3-ylcarbonyl)-1H,3H-pyrrolo[1,2-c]thiazole]  6.74
23. O=C(c1ccn2c1CSC2c1cccnc1)c1cn(C(=O)Oc2ccccc2)c2cc(OCc3ccccc3)ccc12 (stereo not shown) [Example 27, 3-[Pyridin-3-yl)-7-(1-carbophenoxy-6-phenylmethoxyindol-3-ylcarbonyl)-1H,3H-pyrrolo[1,2-c]thiazole]  6.70
24. O=C(c1ccn2c1CSC2c1cccnc1)c1cn(C(=O)N2CCOCC2)c2ccccc12 (stereo not shown) [Example 11, 3-(Pyridin-3-yl)-7-[1-(morpholin-4-ylcarbonyl)indol-3-yl]carbonyl-1H,3H-pyrrolo[1,2-c]thiazole]  6.65
25. COc1ccc(-c2ccc3c(C(=O)c4ccn5c4C(C)(C)SC5c4cccnc4)c[nH]c3c2)cc1 (stereo not shown) [Example 25, 1,1-Dimethyl-3-(pyridin-3-yl)-7-[6-(4-methoxyphenyl)indol-3-ylcarbonyl]-1H,3H-pyrrolo[1,2-c]thiazole]  6.57
26. CC1(C)SC(c2cccnc2)n2ccc(C(=O)c3c[nH]c4ccccc34)c21 (stereo not shown) [Example 17, 1,1-Dimethyl-3-(pyridin-3-yl)-7-(indol-3-ylcarbonyl)-1H,3H-pyrrolo[1,2-c]thiazole]  5.92
27. CN(C)C(=O)n1cc(C(=O)c2ccn3c2CSC3c2cccnc2)c2ccccc21 (stereo not shown) [Example 2, 3-(Pyridin-3-yl)-7-(1-N,N-dimethylcarbamoylindol-3-yl)carbonyl-1H,3H-pyrrolo[1,2-c]thiazole]  5.70
28. CC(C)(C)OC(=O)n1cc(C(=O)c2ccn3c2C[S+]([O-])C3c2cccnc2)c2ccccc21 (stereo not shown) [Example 13, 2-Oxide-3-(pyridin-3-yl)-7-(1-tert-butyloxycarbonylindol-3-ylcarbonyl)-1H,3H-pyrrolo[1,2-c]thiazole]  5.66
29. O=C(c1ccn2c1C[S+]([O-])C2c1cccnc1)c1c[nH]c2ccccc12 (stereo not shown) [Example 14, 2-Oxide-3-(pyridin-3-yl)-7-(indol-3-ylcarbonyl)-1H,3H-pyrrolo[1,2-c]thiazole]  5.62
30. CN(C)C(=O)n1cc(C(=O)c2ccn3c2CSC3c2ccc[n+](C)c2)c2ccc(-c3ccccc3)cc21 (stereo not shown) [Example 33, 3-(1-methylpyridin-3-yl)-7-(1-N,N-dimethylcarbamoyl-6-phenylindol-3-ylcarbonyl)-1H,3H-pyrrolo[1,2-c]thiazole]  5.55
31. O=C(c1ccn2c1COC2c1cccnc1)c1c[nH]c2ccccc12 (stereo not shown) [Example 15, 3-(Pyridin-3-yl)-7-(indol-3-ylcarbonyl)-1H,3H-pyrrolo[1,2-c]oxazole]  5.25
